Source: US20070123546A1, “2-amino-7,8-dihydro-6H-pyrido[4,3-d]pyrimidin-5-ones” (Chiron Corporation, priority 2005, published 2007)

target: His-tagged N-terminal ATP binding domain (amino acid residues 9-236) of HSP90α (Homo sapiens, UniProt P07900); experiment: HSP90 inhibitor binding potency: TRF competition binding assay; conditions: Table 2; competition with biotinylated radicicol
Description: HSP90 Inhibitor Binding Potency: TRF Binding Assay
In this example, the binding potency of HSP90 inhibitors as measured by a TRF binding assay is described.
TRF competition binding assays were performed to determine the binding potency (IC50 values) of HSP90 inhibitors. Purified His-tagged N-terminal ATP binding domain (amino acid residues 9-236) of HSP90α (HSP90α GeneID: 3320; mRNA Sequence NM_005348) was incubated for two hours at room temperature in binding buffer (50 mM HEPES, 6 mM MgCl2, 20 mM KCl and 0.1% BSA) with biotinylated radicicol and progressively higher concentrations of the competing compounds. A fraction of the mixture was transferred to capture plates (coated with streptavidin) and incubated for one hour at room temperature. After washing with DELFIA wash buffer, europium-labeled anti-his antibody was added and incubated for two hours at room temperature, followed by washing with DELFIA buffer. DELFIA enhancement solution was then added. After gentle shaking for 10 minutes, the plates were read in VICTOR for europium counts.

SMILES	IC50 [µM]
COc1ccc(-c2cc(F)ccc2[C@H]2Cc3nc(N)nc(C)c3C(=O)N2)s1 [Compound 65, (R)-2-Amino-7-[4-fluoro-2-(5-methoxy-thiophen-2-yl)-phenyl]-4-methyl-7,8-dihydro-6H-pyrido[4,3-d]pyrimidin-5-one]	< 10
Cc1nc(N)nc2c1C(=O)N[C@@H](c1ccccc1Br)C2 [Compound 66, (R)-2-Amino-7-(2-bromo-phenyl)-4-methyl-7,8-dihydro-6H-pyrido[4,3-d]pyrimidin-5-one]	> 10
COc1nc(-c2ccccc2[C@H]2Cc3nc(N)nc(C)c3C(=O)N2)cs1 [Compound 67, (R)-2-Amino-7-[2-(2-methoxy-thiazol-4-yl)-phenyl]-4-methyl-7,8-dihydro-6H-pyrido[4,3-d]pyrimidin-5-one]	< 10
COc1ncc(-c2ccccc2[C@H]2Cc3nc(N)nc(C)c3C(=O)N2)nc1OC [Compound 68]	< 10
COc1cncc(-c2ccccc2[C@H]2Cc3nc(N)nc(C)c3C(=O)N2)n1 [Compound 69, (R)-2-Amino-7-[2-(6-methoxy-pyrazin-2-yl)-phenyl]-4-methyl-7,8-dihydro-6H-pyrido[4,3-d]pyrimidin-5-one]	< 10
CCc1nc(N)nc2c1C(=O)N[C@@H](c1ccc(F)cc1Br)C2 [Compound 70, (R)-2-Amino-7-(2-bromo-4-fluoro-phenyl)-4-ethyl-7,8-dihydro-6H-pyrido[4,3-d]pyrimidin-5-one]	> 10
CCOc1cncc(-c2ccccc2[C@H]2Cc3nc(N)nc(C)c3C(=O)N2)n1 [Compound 71, (R)-2-Amino-7-[2-(6-ethoxy-pyrazin-2-yl)-phenyl]-4-methyl-7,8-dihydro-6H-pyrido[4,3-d]pyrimidin-5-one]	< 10
CCOc1nc(-c2cc(F)ccc2[C@H]2Cc3nc(N)nc(C)c3C(=O)N2)ncc1F [Compound 72]	< 10
COc1cccc(-c2cc(F)ccc2[C@H]2Cc3nc(N)nc(C)c3C(=O)N2)c1OC [Compound 73, (R)-2-Amino-7-(5-fluoro-2,3′-dimethoxy-biphenyl-2-yl)-4-methyl-7,8-dihydro-6H-pyrido[4,3-d]pyrimidin-5-one]	< 10
CCOc1cccc(-c2cc(F)ccc2[C@H]2Cc3nc(N)nc(C)c3C(=O)N2)n1 [Compound 74]	< 10
CCOc1nc(-c2cc(F)ccc2[C@H]2Cc3nc(N)nc(C)c3C(=O)N2)cnc1N [Compound 75, (R)-2-Amino-7-[2-(5-amino-6-ethoxy-pyrazin-2-yl)-4-fluoro-phenyl]-4-methyl-7,8-dihydro-6H-pyrido[4,3-d]pyrimidin-5-one]	< 10
CCc1nc(N)nc2c1C(=O)N[C@@H](c1ccccc1-c1cccc(OC)n1)C2 [Compound 77, (R)-2-Amino-4-ethyl-7-[2-(6-methoxy-pyndin-2-yl)-phenyl]-7,8-dihydro-6H-pyrido[4,3-d]pyrimidin-5-one]	< 10
CCc1nc(N)nc2c1C(=O)N[C@@H](c1ccccc1-c1cncc(OC)n1)C2 [Compound 78, (R)-2-Amino-4-ethyl-7-[2-(6-methoxy-pyrazin-2-yl)-phenyl]-7,8-dihydro-6H-pyrido[4,3-d]pyrimidin-5-one]	< 10
CCc1nc(N)nc2c1C(=O)N[C@@H](c1ccccc1-c1cnc(N)c(OC)n1)C2 [Compound 79, (R)-2-Amino-7-[2-(5-amino-6-methoxy-pyrazin-2-yl)-phenyl]-4-ethyl-7,8-dihydro-6H-pyrido[4,3-d]pyrimidin-5-one]	< 10
CCc1nc(N)nc2c1C(=O)N[C@@H](c1ccccc1-c1csc(OC)n1)C2 [Compound 80, (R)-2-Amino-4-ethyl-7-[2-(2-methoxy-thiazol-4-yl)-phenyl]-7,8-dihydro-6H-pyrido[4,3-d]pyrimidin-5-one]	> 10
CCc1nc(N)nc2c1C(=O)N[C@@H](c1ccc(F)cc1-c1cccc(OC)n1)C2 [Compound 81, (R)-2-Amino-4-ethyl-7-[4-fluoro-2-(6-methoxy-pyridin-2-yl)-phenyl]-7,8-dihydro-6H-pyrido[4,3-d]pyrimidin-5-one]	< 10
CCc1nc(N)nc2c1C(=O)N[C@@H](c1ccc(F)cc1-c1cncc(OC)n1)C2 [Compound 82, (R)-2-Amino-4-ethyl-7-[4-fluoro-2-(6-methoxy-pyrazin-2-yl)-phenyl]-7,8-dihydro-6H-pyrido[4,3-d]pyrimidin-5-one]	< 10
CCOc1nc(-c2cc(F)ccc2[C@H]2Cc3nc(N)ncc3C(=O)N2)cnc1N [Compound 83, (R)-2-Amino-7-[2-(5-amino-6-ethoxy-pyrazin-2-yl)-4-fluoro-phenyl]-7,8-dihydro-6H-pyrido[4,3-d]pyrimidin-5-one]	< 10
CCc1nc(N)nc2c1C(=O)N[C@@H](c1ccc(F)cc1-c1csc(OC)n1)C2 [Compound 84, (R)-2-Amino-4-ethyl-7-[4-fluoro-2-(2-methoxy-thiazol-4-yl)-pbenyl]-7,8-dihydro-6H-pyrido[4,3-d]pyrimidin-5-one]	< 10
CCOc1cncc(-c2cc(F)ccc2[C@H]2Cc3nc(N)nc(C)c3C(=O)N2)n1 [Compound 85, (R)-2-Amino-7-[2-(6-ethoxy-pyrazin-2-yl)-4-fluoro-phenyl]-4-methyl-7,8-dihydro-6H-pyrido[4,3-d]pyrimidin-5-one]	< 10
CCOc1cncc(-c2cc(F)ccc2[C@H]2Cc3nc(N)nc(CC)c3C(=O)N2)n1 [Compound 86, (R)-2-Amino-7-[2-(6-ethoxy-pyrazin-2-yl)-4-fluoro-phenyl]-4-ethyl-7,8-dihydro-6H-pyrido[4,3-d]pyrimidin-5-one]	< 10
CCOc1cncc(-c2cc(F)ccc2[C@H]2Cc3nc(N)ncc3C(=O)N2)n1 [Compound 87, (R)-2-Amino-7-[2-(6-ethoxy-pyrazin-2-yl)-4-fluoro-phenyl]-7,8-dihydro-6H-pyrido[4,3-d]pyrimidin-5-one]	< 10
COc1cncc(-c2scnc2[C@H]2Cc3nc(N)nc(C)c3C(=O)N2)n1 [Compound 88, (R)-2-Amino-7-[5-(6-methoxy-pyrazin-2-yl)-thiazol-4-yl]-4-methyl-7,8-dihydro-6H-pyrido[4,3-d]pyrimidin-5-one]	< 10

same assay, conditions: Table 3; competition with biotinylated radicicol

SMILES	IC50 [µM]
Cc1nc(N)nc2c1C(=O)NC(c1ccc(F)cc1-c1ccccc1C(F)(F)F)C2 (centres unmarked) [Compound 89, 2-Amino-7-(5-fluoro-2′-trifluoromethyl-biphenyl-2-yl)-4-methyl-7,8-dihydro-6H-pyrido[4,3-d]pyrimidin-5-one]	< 10
Cc1nc(N)nc2c1C(=O)NC(c1ccc(F)cc1-c1ccncc1)C2 (centres unmarked) [Compound 90, 2-Amino-7-(4-fluoro-2-pyridin-4-yl-phenyl)-4-methyl-7,8-dihydro-6H-pyrido[4,3-d]pyrimidin-5-one]	> 10
COc1ccc(-c2cc(F)ccc2C2Cc3nc(N)nc(C)c3C(=O)N2)cc1F (centres unmarked) [Compound 91, 2-Amino-7-(5,3′-difluoro-4′-methoxy-biphenyl-2-yl)-4-methyl-7,8-dihydro-6H-pyrido[4,3-d]pyrimidin-5-one]	> 10
Cc1nc(N)nc2c1C(=O)NC(c1ccccc1)C2 (centres unmarked) [Compound 92, 2-Amino-4-methyl-7-phenyl-7,8-dihydro-6H-pyrido[4,3-d]pyrimidin-5-one]	> 10
COc1cncc(-c2cc(F)ccc2C2Cc3nc(N)nc(C)c3C(=O)N2CCN)n1 (centres unmarked) [Compound 93, 2-Amino-6-(2-amino-ethyl)-7-[4-fluoro-2-(6-methoxy-pyrazin-2-yl)-phenyl]-4-methyl-7,8-dihydro-6H-pyrido[4,3-d]pyrimidin-5-one]	< 10
COc1nc(-c2cc(F)ccc2[C@H]2Cc3nc(N)nc(C)c3C(=O)N2)cs1 [Compound 95, (R)-2-Amino-7-[4-fluoro-2-(2-methoxy-thiazol-4-yl)-phenyl]-4-methyl-7,8-dihydro-6H-pyrido[4,3-d]pyrimidin-5-one]	< 10
COc1cccc(-c2cc(F)ccc2[C@H]2Cc3nc(N)ncc3C(=O)N2)n1 [Compound 96, (R)-2-Amino-7-[4-fluoro-2-(6-methoxy-pyridin-2-yl)-phenyl]-7,8-dihydro-6H-pyrido[4,3-d]pyrimidin-5-one]	< 10
COc1nc(-c2cc(F)ccc2[C@H]2Cc3nc(N)ncc3C(=O)N2)cnc1N [Compound 97, (R)-2-Amino-7-[2-(5-amino-6-methoxy-pyrazin-2-yl)-4-fluoro-ohenyl]-7,8-dihydro-6H-pyrido[4,3-d]pyrimidin-5-one]	< 10
Nc1ncc2c(n1)C[C@H](c1ccc(F)cc1)NC2=O [Compound 98, (R)-2-Amino-7-(4-fluoro-phenyl)-7,8-dihydro-6H-pyrido[4,3-d]pyrimidin-5-one]	< 10
COc1nc(-c2cc(F)ccc2C2Cc3nc(N)nc(C)c3C(=O)N2)cnc1N (centres unmarked) [Compound 99, 2-Amino-7-[2-(5-amino-6-methoxy-pyrazin-2-yl)-4-fluoro-phenyl]-4-methyl-7,8-dihydro-6H-pyrido[4,3-d]pyrimidin-5-one]	< 10
COc1nc(-c2cc(F)ccc2[C@@H]2Cc3nc(N)nc(C)c3C(=O)N2)cnc1N [Compound 100, (S)-2-Amino-7-[2-(5-amino-6-methoxy-pyrazin-2-yl)-4-fluoro-phenyl]-4-methyl-7,8-dihydro-6H-pyrido[4,3-d]pyrimidin-5-one]	> 10
COc1nc(-c2cc(F)ccc2[C@H]2Cc3nc(N)nc(C)c3C(=O)N2)cnc1N [Compound 101, (R)-2-Amino-7-[2-(5-amino-6-methoxy-pyrazin-2-yl)-4-fluoro-phenyl]-4-methyl-7,8-dihydro-6H-pyrido[4,3-d]pyrimidin-5-one]	< 10
